Results: patent US11613528B2, “Small molecule inhibitors of shared epitope-calreticulin interactions and methods of use” (The Regents of the University of Michigan, priority 2017, dated 2023)
Entries after “also recorded” stand apart in the source; their conditions may differ.

What was measured:
SE-CRT interactions = test: inhibition of SE-CRT interactions; type: binding
SKG mice = test: pre-clinical model of RA in SKG mice; type: in vivo
[1] = permeability through Caco-2 cell layers; type: in vitro ADME; conditions: human
RAW 264.7 cells = test: in vitro osteoclast (OC) differentiation assay; type: cell-based, mouse
Experimental: OC differentiation was determined at day 5.
RAW 264.7 cells were cultured in OC-differentiating conditions in the presence or absence of the racemic mix (left) of HL840, the S-enantiomer (middle), or the R-enantiomer (right) at different concentrations, and their inhibitory effect on OC differentiation was determined at day 5.
To differentiate osteoclast (OC) from RAW 264.7 mouse macrophages, cells were cultured in the same way (2×10^4 per well), except that RANKL was added at a concentration of 20 ng/ml, for 5-6 days in the presence or absence of various compounds at different concentrations. To quantify the number of OCs, cultures were fixed and stained for tartrate-resistant acid phosphatase (TRAP) activity using an acid phosphatase kit (Kamiya Biomedical Company, Seattle, Wash.) according to the manufacturer's instructions. TRAP-positive multinucleated OCs (>3 nuclei) were counted using a tissue culture inverted microscope. All experiments were performed in triplicates and repeated 4 (C & D, n=12) or 3 (E-L; n=9) times. Percent inhibition of OC formation relative to cultures with PBS were calculated and presented as dose-response curves. IC50 values were calculated using the GraphPad-Prism software.

mice with CIA = test: collagen induced arthritis (CIA) animal model; type: in vivo, DBA/1 mice; conditions: oral, doses as low as 1.25 μg/Kg body weight twice weekly
Experimental: Arthritis incidence was recorded.
2-tailed Student t-test; **, p<0.005.
Specifically, experiments were conducted with an animal model of collagen induced arthritis (CIA).

[2] = oral availability in vivo (oral gavage, serum levels); parameters: species or system DBA/1 mice

Structure (SMILES)	inhibition of SE-CRT interactions (SE-CRT interactions)	therapeutic effects (SKG mice)	Papp A→B [1] [×10⁻⁶ cm/s]	IC50 (RAW 264.7 cells; Mus musculus, RAW264.7, 120 h, RAW 264.7 cells in OC-differentiating conditions, OC differentiation at day 5, read-out: anti-osteoclast (OC) activity IC50) [nM]	arthritis severity (mice with CIA)	bone destruction (radiologic bone damage) (mice with CIA)	disease development (arthritis incidence) (mice with CIA)	oral availability in vivo [2]	enantiomer-specific activity (e.g., inhibition of SE-CRT interaction and signaling) of racemic HL840 (RAW 264.7 cells; inhibitory effect on OC differentiation at day 5, FIG. 3)
Cn1cc(/C=C/C(=O)N2CCC[C@@H](Cn3cc(CN)nn3)C2)cn1 (racemic) [HL840, (R,E)-(1-((1-(3-(1-methyl-1H-pyrazol-4-yl)acryloyl)piperidin-3-yl)methyl)-1H-1,2,3-triazol-4-yl)methanaminium]	potent, competitive inhibition	Significant therapeutic effects	5.6	0.0199	decreased arthritis severity	prevented bone destruction	strongly inhibited disease development	moderately orally available; also recorded: orally available in vivo	
Cn1cc(/C=C/C(=O)N2CCC[C@@H](Cn3cc(CN)nn3)C2)cn1 (single isomer, unassigned) [(R)-enantiomer]									responsible for all activity
